System: not given
Experiment: not given
Details: not given

Compound | melting point [°C]
C[C@]12CCC(=O)C[C@H]1CC[C@H]1[C@@H]3CCC(=O)[C@@]3(C)CC[C@@]12O | 213 to 216
C/C=C1/CC[C@H]2[C@@H]3CC[C@@H]4C[C@H](O)CC[C@]4(C)C3=CC[C@]12C | 146 to 147.3
C/C=C1/CC[C@H]2[C@@H]3CC[C@@H]4C[C@H](OC(C)=O)CC[C@]4(C)C3=CC[C@]12C | 93.9 to 97.8
COC(=O)/C=C/[C@@H](C)C1=CC[C@H]2[C@@H]3CC[C@@H]4C[C@H](OC(C)=O)CC[C@]4(C)C3=CC[C@]12C | 114 to 116
COC(=O)CC[C@@H](C)[C@H]1CC[C@H]2[C@@H]3CC[C@@H]4C[C@H](OC(C)=O)CC[C@]4(C)C3=CC[C@]12C | 122.1 to 123.9
COC(=O)CC[C@@H](C)[C@H]1CC[C@H]2[C@@H]3CC[C@@H]4C[C@H](OC(C)=O)CC[C@]4(C)[C@H]3CC(=O)[C@]12C | 142.2 to 144.4
COC(=O)CC[C@@H](C)[C@H]1CC[C@H]2[C@@H]3CC[C@@H]4C[C@H](OC(C)=O)CC[C@]4(C)[C@H]3C[C@H](O)[C@]12C | 104.2 to 107.7

System: Primary human adipocytes
Experiment: MTS cell viability assay on primary human adipocytes
Type: cell-based
Details: 0.005%-0.1% bile acid in serum-free media, incubated for 1 hour at 37° C., MTS read at 490 nm, FIG. 1
Procedure: Primary human adipocytes were incubated with varying concentrations of synthetic sodium deoxycholate synthesized using 9-HAD as starting material or bovine-derived sodium deoxycholate obtained from Sigma as described below.
96 well plates (US Scientific cat # cellstar no. 655180) Serum-free RPMI medium (Mediatech cat #17-105-CV) Sodium deoxycholate (DC) (Sigma cat # D6750) Synthetic Sodium glycodeoxycholate (Kythera)
Adipocytes arrived differentiated and at a density of 13,000 cells per well in a 96 well plate. Two plates were received and each treated with the same samples. Cells were incubated for 24 hours at 37° C. with 5% CO2. A 1% stock solution of each bile acid (synthetic and non-synthetic DCA) were made by dissolving 20 mg into 2 mL media (serum-free). Using the 1% stock solution, the following 11 solutions were prepared by dilution: 0.005%, 0.01%, 0.015%, 0.02%, 0.025%, 0.03%, 0.035%, 0.04%, 0.05%, 0.06%, and 0.1%, as well as 0% (media only).
Cells were washed 2× with 150 μL of room temperature 1×PBS (phosphate buffered saline). Media and then PBS were removed from the wells in a 96 well plate by turning the plate upside down and decanting the liquid into a container. After the last PBS wash, 80 μL of sample was added per well. […]
Cell viability was assessed using a colorimetric assay (MTS) kit from Promega.

Compound | cell survival
sodium deoxycholate [syn-NaDC] | dose-dependent decrease in cell survival
